{
  "source": "patent US8389573B2",
  "about": "“Glycyrrhetinic acid derivatives” (Wellington Laboratories Inc., priority 2006, dated 2013)",
  "key": {"PPARγ": {"molecular_target": "T1, PPARγ (Homo sapiens, UniProt P37231)", "T1 construct": "endogenous in cells; host or cells: SW480 colon cancer cells", "T1 sequence (P37231 1-505)": "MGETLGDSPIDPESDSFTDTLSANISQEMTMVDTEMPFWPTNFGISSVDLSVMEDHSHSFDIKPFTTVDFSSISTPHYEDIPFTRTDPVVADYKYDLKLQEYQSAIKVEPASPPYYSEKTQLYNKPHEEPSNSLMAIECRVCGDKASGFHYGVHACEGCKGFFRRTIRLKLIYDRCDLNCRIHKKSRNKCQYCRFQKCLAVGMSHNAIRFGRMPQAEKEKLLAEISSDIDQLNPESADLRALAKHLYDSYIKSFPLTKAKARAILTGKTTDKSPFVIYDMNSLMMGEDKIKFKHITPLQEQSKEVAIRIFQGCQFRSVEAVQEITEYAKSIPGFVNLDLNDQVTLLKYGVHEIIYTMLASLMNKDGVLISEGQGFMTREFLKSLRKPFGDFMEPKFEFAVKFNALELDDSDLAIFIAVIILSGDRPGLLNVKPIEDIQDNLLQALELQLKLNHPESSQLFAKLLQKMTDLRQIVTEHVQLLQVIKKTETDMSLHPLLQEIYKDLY", "assay": "PPRE3-Luc transfection and luciferase assay in SW480 cells", "assay_type": "cell-based", "description": "The Gal4 reporter containing 5× Gal4 response elements (pGal4) was kindly provided by Dr. Marty Mayo (University of North Carolina, Chapel Hill, N.C.). Gal4 DBD-PPARγ construct (gPPARγ) was a gift of Dr. Jennifer L. Oberfield (GlaxoSmithKline Research and Development, Research Triangle Park, N.C.). PPRE3-luc construct contains three tandem PPREs with a minimal TATA sequence in pGL2.\nColon Cancer cell lines SW480 and HT29 (1×10^5 cells/well) were plated in 12-well plates in DMEM/Ham's F-12 media supplemented with 2.5% charcoal-stripped FBS. After 16 h, various amounts of DNA [i.e., Gal4Luc (0.4 μg), β-Gal (0.04 μg), Gal4PPAR and PPRE3-Luc (0.04 μg)] were transfected using LipofectAMINE™ reagent (Invitrogen) following the manufacturer's protocol. Five hours after transfection, the transfection mix was replaced with complete media containing either vehicle (DMSO) or the indicated ligand for 20 to 22 h. Cells were then lysed with 100 μl of 1× reporter lysis buffer, and 30 μl of cell extract was used for luciferase and […] assays. A LumiCount™ luminometer (PerkinElmer Life and Analytical Sciences) was used to quantitate luciferase and β-Gal activities, and the luciferase activities were normalized to β-Gal activity. Results are expressed as means±S.E. for at least three replicate determinations for each treatment group"}, "[1]": {"test_system": "Sp protein levels in RKO cells", "assay": "Sp protein expression (gel) in RKO cells", "assay_type": "cell-based"}, "[2]": {"test_system": "Sp1, Sp3 and Sp4 in liver", "assay": "Sp protein expression in non-target tissue (liver) of treated mice", "assay_type": "in vivo", "conditions": "preliminary results", "description": "(i) Animal treatment: Male athymic nude mice are obtained from commercial sources and their use approved by the Institutional Animal Care and Use Committee. Ten animals are used for each treatment group and based on consultation with biostatisticians, this number is sufficient for determining statistical significance between treatment groups (41, 42). At least one AR-positive (LNCaP/22Rv1) and AR-negative (PC3/DU145) prostate cancer cell line is used in the xenograft study. Cells are harvested by exposure to trypsin and resuspended in serum-free Hanks' balanced salt solution (HBSS). […] In addition, Western blot analysis of Sp proteins, proapoptotic and antiangiogenic responses is determined on whole cell lysates from compound- and corn oil (vehicle)-treated tumors. Where possible (depending on the amount of protein extracted), the effects of the compound versus corn oil on expression of these proteins is quantitated and statistically analyzed. In addition, the effects of the compound on Sp protein expression in non-target tissue (e.g. liver and kidney) is determined. […] Immunostaining for Sp1, Sp3 and Sp4 and for angiogenic (VEGF, VEGFR1 and VEGFR2) and apoptotic (cleaved PARP, activated caspase 3, survivin and TUNEL) proteins/responses are determined as described above."}},
  "data": [
    {"smiles": "COC(=O)[C@@]1(C)CC[C@]2(C)CC[C@]3(C)C(=CC(=O)[C@@H]4[C@@]5(C)C=C(C#N)C(=O)C(C)(C)[C@@H]5CC[C@]43C)[C@@H]2C1", "note": "[β-CDODA-Me, Methyl 2-cyano-3,11-dioxo-18β-oleana-1,12-dien-30-oate]", "values": [
      {"measurement": "transactivation of PPRE3-Luc", "setting": "PPARγ", "result": "induced transactivation"},
      {"measurement": "PPRE3-Luc transactivation after cotreatment with PPARγ antagonists T007 and GW9662", "setting": "PPARγ; 10 μM antagonist", "result": "inhibited"},
      {"measurement": "Sp protein expression", "setting": "[1]", "result": "decreases Sp protein expression"},
      {"measurement": "VEGF protein expression", "setting": "[1]", "result": "decreased VEGF protein expression"},
      {"measurement": "decrease of Sp protein expression with T007 or proteasome inhibitors", "setting": "[1]", "result": "not reversed"},
      {"measurement": "Sp1, Sp3 and Sp4 expression in liver", "setting": "[2]", "result": "unaffected"}
    ]}
  ]
}
